Data published in the supplement of paper PMC8967900.

How the values were obtained:
Assay in all cases: selective drug sensitivity score (sDSS, relative to normal bone marrow) (sDSS (score)); higher = more potent and effective on the cell line relative to normal bone marrow cells
Settings in all cases: 72 h
MHH-CALL-3 = system: MHH-CALL-3
MOLT-14 = system: MOLT-14
LC4-1 = system: LC4-1
NALM-6 = system: NALM-6
ALL-PO = system: ALL-PO
COG-LL-332h = system: COG-LL-332h
SUP-B15 = system: SUP-B15
KASUMI-10 = system: KASUMI-10
HPB-ALL = system: HPB-ALL
COG-LL-394h = system: COG-LL-394h
COG-LL-317 = system: COG-LL-317
TMD5 = system: TMD5
MOLT-16 = system: MOLT-16
KOPN-8 = system: KOPN-8
KARPAS-45 = system: KARPAS-45
P30-OHKUBO = system: P30-OHKUBO
MOLT-4 = system: MOLT-4
NALL-1 = system: NALL-1
HAL-01 = system: HAL-01
MHH-CALL-4 = system: MHH-CALL-4
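Note: ALL cell lines in 384-well plates, five doses spanning 10,000-fold, each plate scaled between vehicle and 100 µmol/L benzalkonium chloride controls, sDSS an adapted area-under-curve metric.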

| SMILES | selective drug sensitivity score (MHH-CALL-3) | selective drug sensitivity score (MOLT-14) | selective drug sensitivity score (LC4-1) | selective drug sensitivity score (NALM-6) | selective drug sensitivity score (ALL-PO) | selective drug sensitivity score (COG-LL-332h) | selective drug sensitivity score (SUP-B15) | selective drug sensitivity score (KASUMI-10) | selective drug sensitivity score (HPB-ALL) | selective drug sensitivity score (COG-LL-394h) | selective drug sensitivity score (COG-LL-317) | selective drug sensitivity score (TMD5) | selective drug sensitivity score (MOLT-16) | selective drug sensitivity score (KOPN-8) | selective drug sensitivity score (KARPAS-45) | selective drug sensitivity score (P30-OHKUBO) | selective drug sensitivity score (MOLT-4) | selective drug sensitivity score (NALL-1) | selective drug sensitivity score (HAL-01) | selective drug sensitivity score (MHH-CALL-4) |
| --- | --- | --- | --- | --- | --- | --- | --- | --- | --- | --- | --- | --- | --- | --- | --- | --- | --- | --- | --- | --- |
| O=C(O)CC[C@H]1CC[C@@](c2cc(F)ccc2F)(S(=O)(=O)c2ccc(Cl)cc2)CC1 [MK-0752] (top concentration 1000 nM) | 0 | 0 | 0 | 0 | 0 | 0 | 0 | 0 | 0 | 0 | 0 | 0 | 0 | 0 | 0 | 2.5 | 0 | 8.6 | 3.5 | 0 |
| CNC(=O)[C@@H](NC(=O)[C@H](CC(C)C)[C@H](O)C(=O)NO)C(C)(C)C [Marimastat] (top concentration 10000 nM) | -1.28 | 2.92 | -1.28 | -1.28 | 5.22 | -0.18 | 4.52 | 0.22 | -1.08 | -0.88 | -1.28 | 3.72 | 2.82 | 7.22 | 3.32 | -0.18 | 0.62 | 4.12 | -1.28 | 0.92 |
| Clc1ccc(C(c2ccccc2Cl)C(Cl)Cl)cc1 (stereo not given) [Mitotane] (top concentration 10000 nM) | -0.08 | 0.32 | -0.08 | -0.08 | -0.08 | 0.92 | -0.08 | -0.08 | 5.12 | -0.08 | -0.08 | -0.08 | -0.08 | 4.32 | 0.02 | -0.08 | -0.08 | -0.08 | 0.62 | 0.12 |
| CCS(=O)(=O)Nc1ccc(Oc2ccc(F)cc2F)c(-c2cn(C)c(=O)c3[nH]ccc23)c1 [Mivebresib] (top concentration 10000 nM) | 17.2 | 2.7 | 8.9 | 6 | 6.1 | -3.9 | 7.8 | 10.9 | 1.9 | 1.6 | 11.5 | -5.7 | 13.1 | 16.6 | 14 | 15.3 | -3.5 | 0.6 | 1.1 | 12.5 |
| CN1C(=O)N[C@H](Cc2c[nH]c3c(Cl)cccc23)C1=O [Necrostatin_2] (top concentration 10000 nM) | -0.08 | -0.08 | -0.08 | -0.08 | -0.08 | -0.08 | -0.08 | -0.08 | -0.08 | -0.08 | -0.08 | -0.08 | -0.08 | -0.08 | -0.08 | -0.08 | -0.08 | -0.08 | -0.08 | -0.08 |
| O=c1ncn2nc(Sc3ccc(F)cc3F)ccc2c1-c1c(Cl)cccc1Cl [Neflamapimod] (top concentration 10000 nM) | 0 | 0 | 0.9 | 0.6 | 5 | 0.3 | 0.5 | 0 | 0.8 | 1.3 | 1.7 | 0 | 2.1 | 4 | 0.1 | 2.2 | 0 | 2.1 | 2.5 | 0 |
| CC(O)c1cc(C(=O)N[C@@H](C)Cn2ccc(-c3ccc(C#N)c(Cl)c3)n2)n[nH]1 (stereo not given in full) [ODM-201] (top concentration 2500 nM) | 0.82 | 0.82 | 1.62 | 1.22 | 0.52 | 1.52 | 4.22 | -0.28 | 0.12 | -0.28 | 1.22 | -0.28 | 1.82 | 0.02 | 2.32 | 0.22 | -0.18 | -0.28 | 1.42 | -0.28 |
| C=CC(=O)Nc1cccc(Oc2nc(Nc3ccc(N4CCN(C)CC4)cc3)nc3ccsc23)c1 [Olmutinib] (top concentration 1000 nM) | -0.02 | -0.02 | -0.02 | -0.02 | -0.02 | -0.02 | -0.02 | -0.02 | -0.02 | -0.02 | 0.48 | -0.02 | -0.02 | -0.02 | 0.28 | 1.38 | -0.02 | 5.88 | 5.78 | -0.02 |
| C=CC(=O)Nc1cc(Nc2nccc(-c3cn(C)c4ccccc34)n2)c(OC)cc1N(C)CCN(C)C [Osimertinib] (top concentration 2500 nM) | -4.62 | 0.08 | -0.42 | -1.62 | -0.72 | -0.32 | -2.02 | 2.18 | -0.92 | 1.68 | 0.78 | 2.98 | -0.82 | -0.82 | -1.92 | 1.08 | -3.12 | 0.58 | -0.42 | -1.12 |
